Reference: the supplement of paper PMC13380429

Columns and labels:
Settings in all cases: 72 h
HepG2 [1] = test: cell viability relative to DMSO; higher = less toxic
Caco-2 [2] = test: as above
Vero E6 [3] = test: as above
U2OS [4] = test: as above
Calu-3 [5] = test: as above
HepG2 [6] = test: drug sensitivity score (DSS) for viability; higher = more toxic; extreme values may be limits of the assay
Caco-2 [7] = test: as above
Vero E6 [8] = test: as above
U2OS [9] = test: as above
Calu-3 [10] = test: as above
HepG2 [11] = test: relative viability EC50 (midpoint between 100% and the lowest measured viability); higher = less toxic
Caco-2 [12] = test: as above
Vero E6 [13] = test: as above
U2OS [14] = test: as above
Calu-3 [15] = test: as above

Compound	cell viability (HepG2 [1]; 1 nM) [%]	cell viability (HepG2 [1]; 10 nM) [%]	cell viability (HepG2 [1]; 100 nM) [%]	cell viability (HepG2 [1]; 1000 nM) [%]	cell viability (HepG2 [1]; 10000 nM) [%]	cell viability (Caco-2 [2]; 1 nM) [%]	cell viability (Caco-2 [2]; 10 nM) [%]	cell viability (Caco-2 [2]; 100 nM) [%]	cell viability (Caco-2 [2]; 1000 nM) [%]	cell viability (Caco-2 [2]; 10000 nM) [%]	cell viability (Vero E6 [3]; 1 nM) [%]	cell viability (Vero E6 [3]; 10 nM) [%]	cell viability (Vero E6 [3]; 100 nM) [%]	cell viability (Vero E6 [3]; 1000 nM) [%]	cell viability (Vero E6 [3]; 10000 nM) [%]	cell viability (U2OS [4]; 1 nM) [%]	cell viability (U2OS [4]; 10 nM) [%]	cell viability (U2OS [4]; 100 nM) [%]	cell viability (U2OS [4]; 1000 nM) [%]	cell viability (U2OS [4]; 10000 nM) [%]	cell viability (Calu-3 [5]; 1 nM) [%]	cell viability (Calu-3 [5]; 10 nM) [%]	cell viability (Calu-3 [5]; 100 nM) [%]	cell viability (Calu-3 [5]; 1000 nM) [%]	cell viability (Calu-3 [5]; 10000 nM) [%]	drug sensitivity score (HepG2 [6])	drug sensitivity score (Caco-2 [7])	drug sensitivity score (Vero E6 [8])	drug sensitivity score (U2OS [9])	drug sensitivity score (Calu-3 [10])	relative viability EC50 (HepG2 [11]) [µM]	relative viability EC50 (Caco-2 [12]) [µM]	relative viability EC50 (Vero E6 [13]) [µM]	relative viability EC50 (U2OS [14]) [µM]	relative viability EC50 (Calu-3 [15]) [µM]
CO[C@H]1[C@H](O)[C@@H](O)[C@@H](O)[C@H](O)[C@@H]1O [pinitol]	99.2	95.1	85.4	80	96.6	107	84.5	104	94	97	102	106	104	92.1	93.4	96.5	97.5	98.4	99.8	96	83.9	100	89.7	96.5	94.2	0	0	0	0	0	> 10	> 10	> 10	> 10	> 10
C[C@]12CCC(=O)C=C1C=C[C@@H]1[C@@H]2CC[C@@]2(C)[C@H]1CC[C@@]2(O)CCC(=O)O [potassium-canrenoate]	106	89.4	85.4	87.9	99	93.8	112	77.3	88.9	105	102	91.6	102	88	100	97.1	104	98.9	100	98.9	102	94.7	107	101	104	0	0	0	0	0	> 10	> 10	> 10	> 10	> 10
CC(=O)[C@H]1CC[C@H]2[C@@H]3CC=C4C[C@@H](O)CC[C@]4(C)[C@H]3CC[C@]12C [pregnenolone]	98.9	96	99.6	92.7	93.6	97.1	95.9	88.9	90.4	90.4	102	104	99.5	88.4	95.2	91.5	96.4	93.5	99.1	94.7	96.8	101	101	97.1	98.6	0	0.3	0.4	0	0	> 10	> 10	> 10	> 10	> 10
C[C@@H]1NC(C)(C)CO[C@@]1(O)c1cccc(Cl)c1 [radafaxine]	98.3	99.7	97.6	98.4	90.3	90.2	94.4	97.4	99.9	95	100	97.9	106	96.4	105	101	103	101	102	97.5	95.4	92.4	94.1	101	90.3	0	0	0	0	0	> 10	> 10	> 10	> 10	> 10
Oc1cccc(O)c1 [resorcinol]	105	92.9	90.4	79.2	89	103	89.8	95.5	100	103	103	96	97.4	96.5	107	97.6	93.8	96.2	96.8	103	97.5	102	114	99.2	103	2.5	0	0	0	0	> 10	> 10	> 10	> 10	> 10
C[C@@H](c1ccc2nccn2c1)n1nnc2ncc(-c3cnn(C)c3)nc21 [savolitinib]	99.5	96.2	96.8	89.4	83.4	103	92.9	95.4	100	91.8	102	102	96.5	98.9	97.4	101	103	98.9	96.9	95.8	99.3	85.2	94.4	95.5	95.3	0.8	0	0	0	0	> 10	> 10	> 10	> 10	> 10
Cc1cc(S(=O)(=O)O)c2c(C)ccc(C(C)C)cc1-2 [sodium-gualenate]	97.3	87.1	103	94.6	108	90.8	95.5	92.2	92.8	89.3	98	106	101	93.2	92.8	92.8	95.2	98	101	104	109	91.8	112	103	100	0	0	0	0	0	> 10	> 10	> 10	> 10	> 10
C/C=C/C=C/C(=O)O [sorbic-acid]	87.3	97.6	90.7	107	108	103	93.3	106	99	114	95.4	103	96.5	94.5	102	99.5	98.4	94.2	102	102	106	99.8	84.4	91.3	110	0	0	0	0	0	> 10	> 10	> 10	> 10	> 10
CC(=O)N1N=C(c2ccc(N)cc2)c2cc3c(cc2C[C@H]1C)OCO3 [talampanel]	101	93.9	100	107	99.7	94.7	104	94.7	96.9	98.6	94	95.3	95.9	95.5	97.4	99	101	96.7	95.5	97.7	98	99.6	98.2	95.6	97.3	0	0	0	0	0	> 10	> 10	> 10	> 10	> 10
CCC[C@H](NC(=O)[C@@H]1[C@H]2CCC[C@H]2CN1C(=O)[C@@H](NC(=O)[C@@H](NC(=O)c1cnccn1)C1CCCCC1)C(C)(C)C)C(=O)C(=O)NC1CC1 [telaprevir]	115	108	98.8	107	87	101	93.1	95.6	102	91.5	100	103	98.9	105	99	99.2	97.9	102	98.8	93.9	106	88.1	101	93.6	97.6	0	0	0	0	0	> 10	> 10	> 10	> 10	> 10
CC(=O)CC/C=C(\C)CC/C=C(\C)CC/C=C(\C)CCC=C(C)C [teprenone]	96.3	102	97.4	92.3	101	96.9	88.2	93.7	98.6	116	94.8	103	92.6	103	100	102	95.4	103	96.9	99.2	92.2	88.5	99.7	95.5	94.9	0	0	0	0	0	> 10	> 10	> 10	> 10	> 10
CCO[C@@H](Cc1ccc(OCCc2ccc(OS(C)(=O)=O)cc2)cc1)C(=O)O [tesaglitazar]	101	96.7	104	91.1	98.1	101	86	94.1	100	99.2	99.2	99.5	96	81.9	82.6	100	95.9	95.7	101	105	105	104	97.9	113	110	0	0	2.7	0	0	> 10	> 10	> 10	> 10	> 10
CC1(C)O[C@@H]2[C@@H](CO[C@@]3(COS(N)(=O)=O)OC(C)(C)O[C@@H]23)O1 [topiramate]	108	96.9	91.8	95.9	94.9	93.2	83.1	92.2	112	98.7	89.5	98.3	95.6	97.7	107	98.7	94.5	98.1	105	108	110	96.6	94.8	95.2	103	0	0	0	0	0	> 10	> 10	> 10	> 10	> 10
CCOC(=O)[C@H](CCc1ccccc1)N[C@@H](C)C(=O)N1[C@H](C(=O)O)C[C@H]2CCCC[C@@H]21 [trandolapril]	90.7	104	96.4	100	108	93.1	86	83.2	89.6	100	91.6	97.3	89.6	96.1	107	97.6	92.6	98.5	96	99.4	106	98	102	108	102	0	0.4	0	0	0	> 10	> 10	> 10	> 10	> 10
